Data published in patent publication US20050215478A1, “Amino acid sequences capable of facilitating penetration across a biological barrier” (priority 2002, published 2005).
No end group written: not given here.

Assay: Translocation of ^125I-labeled peptide from mouse intestine loop into blood and organs (Example 1)
Format: in vivo, BALB/c mice
Conditions: similar experiments; injected into a mouse intestinal loop; fraction of the full conjugate IBW-002
Excerpt: The tested peptide, representing a penetrating peptide and a radio-labeled probe in a contiguous construct of SEQ ID NO 3 and SEQ ID NO 17, hereby named IBW 002 (Novetide, lot 40139-45, sequence: Ac-NYYDITLALAGICQSARLVQQLAGGGKGGK-NH2 (SEQ ID NO:22), was ^125I-labeled using the Bolton Hunter Reagent (Biochem. J. 133:529-39 (1973)). The labeled peptide was loaded on a Sephadex G10 column, washed with phosphate buffer and eluted with 3M Tiocyanate in DDW+50% n-butanol. The peak, containing 6 fractions, was kept and used for in vivo experiments.
Four male BALB/c mice, 9-10 weeks old, were deprived of food, 18 hours prior to the experiment.
The mice were anesthetized by i.p. injection of 0.05 ml of a mixture of 0.15 ml xylazine+0.85 ml of ketamin. A 2 cm long incision was made along the center of the abdomen, through the skin and abdominal wall. An intestine loop was gently pulled out through the incision and placed on wet gauze beside the animal. The loop remained intact through the entire procedure and was kept wet during the whole time. The tested compound was injected into the loop, 0.2 ml/ mouse, containing around 200,000 cpm, using a 26G needle. Fifteen minutes post injection the tip of the tail was cut and a 50 μl blood sample was drawn into a glass capillary. This was repeated 30 and 60 minutes post injection. The animals were subsequently sacrificed. The following organs were removed: epididymal fat, kidneys, liver, lungs and brain. Radioactivity in each organ and in blood samples was counted. A 5 μl sample of the injected solution was counted to determine the total injected cpm per mouse.
The total radioactive labeling injected per mouse was 224,160 cpm. Total cpm in the blood was calculated based on the 50 μl blood sample drawn out at different time points post injection, in the assumption that total blood volume of each mouse is 2 ml.

Substance	average amount recovered from the blood and various organs, relative to that obtained with IBW-002
GGKGGK (also: 125I label, site not given here) [SEQ ID NO:17, reference compound]	about ⅕

Assay: Relative potency of penetrating peptides as tested in mice (Example 3)
Format: in vivo
Conditions: IBW-002 = 100
Excerpt: Relative Potency of Penetrating Peptides as Tested in Mice.

Substance	Relative potency (%)
AcMNYYDITLALAGICQSARLVQQLAGGGKGGKNH2 (Ac-MNYYDITLALAGICQSARLVQQLAGGGKGGK-NH2) [IBW-002V1]	73%
AcMRNLTRTSLLLAGLCTAAQMVFVGGGKGGKNh2 (Ac-MRNLTRTSLLLAGLCTAAQMVFVGGGKGGK-NH2) [IBW-005]	51%
AcMYDITLALAGICQSARIVQQLAGGKGGKNH2 [IBW-002V3]	77%
AcMYYDITLALAGICQSARLVQQLAGGGKGGKNH2 (Ac-MYYDITLALAGICQSARLVQQLAGGGKGGK-NH2) [IBW-002V2]	80%
AcNLPPIVLAVIGICAAVFLLQQYVGGGKGGKNH2 (Ac-NLPPIVLAVIGICAAVFLLQQYVGGGKGGK-NH2) [IBW-003]	37%
AcNYFIVNLALADLCMAAFNAAFNFGGGKGGKNH2 (Ac-NYFIVNLALADLCMAAFNAAFNFGGGKGGK-NH2) [IBW-004]	63%
AcNYFLVNLAFAEASMAAFNTVVNFGGKGGKNH2 (Ac-NYFLVNLAFAEASMAAFNTVVNFGGKGGK-NH2) [IBW-007]	66%
AcNYHDIVLALAGVCQSARLVHQLAGGKGGKNH2 [IBW-006]	77%
